Measured values published in ChEMBL document CHEMBL1275576, “In vitro activity of tomopenem (CS-023/RO4908463) against anaerobic bacteria” (Antimicrob Agents Chemother, 2009).

Legend:
Type in all cases: functional
Bacteroides uniformis [1] = experiment: Antimicrobial activity against Bacteroides uniformis ATCC 8492 by agar dilution method in presence of 5% laked sheep blood
Fusobacterium nucleatum [2] = experiment: Antimicrobial activity against Fusobacterium nucleatum ATCC 25586 by agar dilution method in presence of 5% laked sheep blood
Parvimonas micra = experiment: Antimicrobial activity against Parvimonas micra by agar dilution method in presence of 5% laked sheep blood
[3] = tested on: Campylobacter ureolyticus; experiment: Antimicrobial activity against Bacteroides ureolyticus NCTC 10941 by agar dilution method in presence of 5% laked sheep blood
Lactobacillus brevis = experiment: Antimicrobial activity against Lactobacillus brevis subsp. brevis JCM 1059 by agar dilution method in presence of 5% laked sheep blood; details: Levilactobacillus brevis
Bacteroides fragilis [4] = experiment: Antimicrobial activity against Bacteroides fragilis GAI 7955 by agar dilution method in presence of 5% laked sheep blood
Bacteroides fragilis [5] = experiment: Antimicrobial activity against Bacteroides fragilis GAI 10150 by agar dilution method in presence of 5% laked sheep blood
Bacteroides uniformis [6] = experiment: Antimicrobial activity against Bacteroides uniformis by agar dilution method in presence of 5% laked sheep blood
[7] = tested on: Streptococcus intermedius; experiment: Antimicrobial activity against Streptococcus intermedius ATCC 27335 by agar dilution method in presence of 5% laked sheep blood
Fusobacterium sp. = experiment: Antimicrobial activity against Fusobacterium sp. by agar dilution method in presence of 5% laked sheep blood
Lacticaseibacillus casei = experiment: Antimicrobial activity against Lactobacillus casei subsp. casei JCM 1134 by agar dilution method in presence of 5% laked sheep blood
[8] = tested on: Peptostreptococcus anaerobius; experiment: Antimicrobial activity against Peptostreptococcus anaerobius by agar dilution method in presence of 5% laked sheep blood
[9] = tested on: Desulfovibrio desulfuricans; experiment: Antimicrobial activity against Desulfovibrio desulfuricans by agar dilution method in presence of 5% laked sheep blood
Bacteroides stercoris = experiment: Antimicrobial activity against Bacteroides stercoris by agar dilution method in presence of 5% laked sheep blood
Hoylesella oralis = experiment: Antimicrobial activity against Prevotella oralis ATCC 33269 by agar dilution method in presence of 5% laked sheep blood
Eubacterium limosum = experiment: Antimicrobial activity against Eubacterium limosum by agar dilution method in presence of 5% laked sheep blood
[10] = Antimicrobial activity against Veillonella dispar ATCC 17748 by agar dilution method in presence of 5% laked sheep blood
Fusobacterium mortiferum = experiment: Antimicrobial activity against Fusobacterium mortiferum by agar dilution method in presence of 5% laked sheep blood
Eggerthella lenta = experiment: Antimicrobial activity against Eggerthella lenta ATCC 25559 by agar dilution method in presence of 5% laked sheep blood
[11] = tested on: Bacteroides thetaiotaomicron; experiment: Antimicrobial activity against Bacteroides thetaiotaomicron by agar dilution method in presence of 5% laked sheep blood
Bilophila wadsworthia = experiment: Antimicrobial activity against Bilophila wadsworthia WAL 7959 by agar dilution method in presence of 5% laked sheep blood
Fusobacterium varium = experiment: Antimicrobial activity against Fusobacterium varium by agar dilution method in presence of 5% laked sheep blood
[12] = tested on: Staphylococcus saccharolyticus; experiment: Antimicrobial activity against Staphylococcus saccharolyticus ATCC 14953 by agar dilution method in presence of 5% laked sheep blood
Prevotella intermedia = experiment: Antimicrobial activity against Prevotella intermedia by agar dilution method in presence of 5% laked sheep blood
Porphyromonas uenonis = experiment: Antimicrobial activity against Porphyromonas uenonis by agar dilution method in presence of 5% laked sheep blood
Finegoldia magna = experiment: Antimicrobial activity against Finegoldia magna by agar dilution method in presence of 5% laked sheep blood
Odoribacter splanchnicus = experiment: Antimicrobial activity against Odoribacter splanchnicus by agar dilution method in presence of 5% laked sheep blood
Clostridium septicum = experiment: Antimicrobial activity against Clostridium septicum ATCC 12464 by agar dilution method in presence of 5% laked sheep blood
Clostridioides difficile = experiment: Antimicrobial activity against Clostridium difficile by agar dilution method in presence of 5% laked sheep blood
[13] = tested on: Enterocloster clostridioformis; experiment: Antimicrobial activity against Clostridium clostridioforme NCTC 11224 by agar dilution method in presence of 5% laked sheep blood
Schaalia odontolytica = experiment: Antimicrobial activity against Actinomyces odontolyticus GAI 91002 by agar dilution method in presence of 5% laked sheep blood
Clostridium perfringens = experiment: Antimicrobial activity against Clostridium perfringens by agar dilution method in presence of 5% laked sheep blood
Veillonella parvula = experiment: Antimicrobial activity against Veillonella parvula ATCC 10790 by agar dilution method in presence of 5% laked sheep blood
Anaerococcus prevotii = experiment: Antimicrobial activity against Anaerococcus prevotii ATCC 9321 by agar dilution method in presence of 5% laked sheep blood
Cutibacterium acnes = experiment: Antimicrobial activity against Propionibacterium acnes ATCC 11828 by agar dilution method in presence of 5% laked sheep blood
Fusobacterium nucleatum [14] = experiment: Antimicrobial activity against Fusobacterium nucleatum by agar dilution method in presence of 5% laked sheep blood
Bifidobacterium breve = experiment: Antimicrobial activity against Bifidobacterium breve ATCC 15700 by agar dilution method in presence of 5% laked sheep blood
Bacteroides fragilis [15] = experiment: Antimicrobial activity against carbapenemase-producing Bacteroides fragilis GAI 30144 by agar dilution method in presence of 5% laked sheep blood
[16] = tested on: Lactobacillus acidophilus; experiment: Antimicrobial activity against Lactobacillus acidophilus JCM 1132 by agar dilution method in presence of 5% laked sheep blood
[17] = tested on: Porphyromonas asaccharolytica; experiment: Antimicrobial activity against Porphyromonas asaccharolyticus by agar dilution method in presence of 5% laked sheep blood
[18] = tested on: Prevotella melaninogenica; experiment: Antimicrobial activity against Prevotella melaninogenica JCM 6325 by agar dilution method in presence of 5% laked sheep blood; details: ATCC 25845
Bacteroides caccae = experiment: Antimicrobial activity against Bacteroides caccae by agar dilution method in presence of 5% laked sheep blood
[19] = tested on: Fusobacterium necrophorum; experiment: Antimicrobial activity against Fusobacterium necrophorum by agar dilution method in presence of 5% laked sheep blood
Prevotella sp. = experiment: Antimicrobial activity against Prevotella sp. by agar dilution method in presence of 5% laked sheep blood

Cc1ncc([N+](=O)[O-])n1CCO [METRONIDAZOLE]
MIC (Bacteroides uniformis [1]): 0.5 µg/mL | MIC (Fusobacterium nucleatum [2]): ≤ 0.015 µg/mL | MIC50 (Parvimonas micra): 0.5 µg/mL | MIC90 (Parvimonas micra): 1 µg/mL | MIC [3]: 2 µg/mL | MIC (Lactobacillus brevis): > 128 µg/mL | MIC (Bacteroides fragilis [4]): 0.25 µg/mL | MIC (Bacteroides fragilis [5]): 1 µg/mL | MIC50 (Bacteroides uniformis [6]): 0.5 µg/mL | MIC90 (Bacteroides uniformis [6]): 1 µg/mL | MIC [7]: > 128 µg/mL | MIC50 (Fusobacterium sp.): ≤ 0.015 µg/mL | MIC90 (Fusobacterium sp.): 0.5 µg/mL | MIC (Lacticaseibacillus casei): > 128 µg/mL | MIC50 [8]: 0.125 µg/mL | MIC90 [8]: 0.5 µg/mL | MIC50 [9]: 0.125 µg/mL | MIC90 [9]: 0.25 µg/mL | MIC50 (Bacteroides stercoris): 0.5 µg/mL | MIC90 (Bacteroides stercoris): 1 µg/mL | MIC (Hoylesella oralis): 0.125 µg/mL | MIC50 (Eubacterium limosum): 0.5 µg/mL | MIC90 (Eubacterium limosum): 0.5 µg/mL | MIC [10]: 2 µg/mL | MIC50 (Fusobacterium mortiferum): ≤ 0.015 µg/mL | MIC90 (Fusobacterium mortiferum): 0.5 µg/mL | MIC (Eggerthella lenta): 0.5 µg/mL | MIC50 [11]: 0.5 µg/mL | MIC90 [11]: 2 µg/mL | MIC (Bilophila wadsworthia): 0.06 µg/mL | MIC50 (Fusobacterium varium): ≤ 0.015 µg/mL | MIC90 (Fusobacterium varium): 0.5 µg/mL | MIC [12]: > 128 µg/mL | MIC50 (Prevotella intermedia): 0.5 µg/mL | MIC90 (Prevotella intermedia): 0.5 µg/mL | MIC50 (Porphyromonas uenonis): 0.06 µg/mL | MIC90 (Porphyromonas uenonis): 0.25 µg/mL | MIC50 (Finegoldia magna): 0.5 µg/mL | MIC90 (Finegoldia magna): 1 µg/mL | MIC50 (Odoribacter splanchnicus): 0.5 µg/mL | MIC90 (Odoribacter splanchnicus): 1 µg/mL | MIC (Clostridium septicum): 1 µg/mL | MIC50 (Clostridioides difficile): 1 µg/mL | MIC90 (Clostridioides difficile): 1 µg/mL | MIC [13]: ≤ 0.015 µg/mL | MIC (Schaalia odontolytica): 16 µg/mL | MIC50 (Clostridium perfringens): 1 µg/mL | MIC90 (Clostridium perfringens): 2 µg/mL | MIC (Veillonella parvula): 2 µg/mL | MIC (Anaerococcus prevotii): 2 µg/mL | MIC (Cutibacterium acnes): > 128 µg/mL | MIC50 (Fusobacterium nucleatum [14]): ≤ 0.015 µg/mL | MIC90 (Fusobacterium nucleatum [14]): 0.5 µg/mL | MIC (Bifidobacterium breve): 16 µg/mL | MIC (Bacteroides fragilis [15]): 1 µg/mL | MIC [16]: > 128 µg/mL | MIC50 [17]: 0.06 µg/mL | MIC90 [17]: 0.25 µg/mL | MIC [18]: 1 µg/mL | MIC50 (Bacteroides caccae): 0.5 µg/mL | MIC90 (Bacteroides caccae): 1 µg/mL | MIC50 [19]: ≤ 0.015 µg/mL | MIC90 [19]: 0.5 µg/mL | MIC50 (Prevotella sp.): 1 µg/mL | MIC90 (Prevotella sp.): 2 µg/mL
